This is an account of results in patent publication US20170158671A1, “PYRIMIDINE COMPOSITIONS, ULTRA PURE COMPOSITIONS AND SALTS THEREOF, METHODS OF MAKING THE SAME, AND METHODS OF USING THE SAME FOR TREATING HISTAMINE H4 RECEPTOR (H4) MEDIATED DISEASES AND CONDITIONS” (Ziarco Pharma Ltd., priority 2015, published 2017).

The nature of series [1]: Salt screen: HT-XRPD after accelerated aging conditions. The conditions noted are these: solid form by HT-XRPD after 40° C., 75% RH for two days, code+number = crystalline salt polymorph, 0 = crystalline counter ion itself. It counts as physicochemical. As for the experimental part:
XRPD patterns were obtained using the Crystallics T2 high-throughput XRPD set-up. The plates were mounted on a Bruker General Area Detector Diffraction System (GADDS) equipped with a VÅNTEC-500 gas area detector corrected for intensity and geometric variations. The calibration of the measurement accuracy (peaks position) was performed using NIST SRM1976 standard (Corundum).
Data collection was carried out at room temperature using monochromatic CuKα radiation in the 2θ region between 1.5° and 41.5°, which is the most distinctive part of the XRPD pattern. The diffraction pattern of each well was collected in two 2θ ranges (1.5°≦2θ≦21.5° for the first frame, and 19.5°≦2θ≦41.5° for the second) with an exposure time of 90 s for each frame. No background subtraction or curve smoothing was applied to the XRPD patterns.
Approximately 175 mg of N^4-(cyclopropylmethyl)-6-[(3R)-3-(methylamino)pyrrolidin-1-yl]pyrimidine-2,4-diamine in 1-Butanol and Dichloromethane were combined with a slight molar excess of either solid or liquid counter ion. Samples were incubated at RT. After 5 days the solids were collected, dried under vacuum and analyzed by HT-XRPD (XRPD 1).
Subsequently, the solids were exposed to accelerated aging conditions (40° C., 75% RH) for two days and re-analyzed by HT-XRPD (XRPD 2). Crystalline salts (polymorphs) are indicated with the abbreviated counter ion code and a number (1, 2, etc.). The number zero (0) indicates the crystalline counter ion itself.

Series [2] in a line: Dynamic vapor sorption (DVS) analysis. It counts as physicochemical. The following applies: 25° C. As for the experimental part: Moisture sorption isotherms were collected on a DVS-1 system from Surface Measurement Systems (London, UK). Typical sample size is between 5 and 10 mg of solid material. The relative humidity was cycled between 40% to 0% (desorption), up to 95% (sorption), back to 0% RH (desorption) and up to 95% RH (sorption) in steps of 10% at a constant temperature of 25° C. with an initial stabilizing step at 40% RH for 6 hours.
(FIG. 9) The relative humidity (RH) was cycled between 40% to 0% (desorption), up to 95% (sorption) in steps of 10%. During the desorption, the dehydration step occurs when the RH goes below 10% RH. Water uptake is observed in between 0-20% RH (1.9% mass uptake) and 20-30% (total mass uptake 6.9%).

The nature of series [3]: Salt screen: HT-XRPD after accelerated aging conditions. It counts as physicochemical. The following applies: 14 counter ions tested; only hydrochloric acid gave such a salt.
Series [4] deals with mild asthmatics. The following applies: 36 mg in two single doses given 12 hours apart, oral; cited from earlier work.
Series [5] concerns adult subjects with moderate to severe atopic dermatitis. Nature of the series: Phase 2a study in moderate to severe atopic dermatitis. It is filed as in vivo, human. As for the experimental part: Following the phase 1 trials, a phase 2a trial was conducted to evaluate the efficacy of 8 weeks of treatment with 30 mg ZPL-389 administered once daily in adult subject with moderate to severe atopic dermatitis. The study was also designed to assess the safety and tolerability of ZPL-389 in adult subjects with moderate to severe atopic dermatitis.
This study was a randomized, double blind, placebo controlled, parallel group study of subjects having a pruritus Numerical Rating Scale (NRS) of ≧5 (0-10 scale), an Investigator's Global Assessment (IGA) ≧3 (0-3 scale), and moderate-severe AD Eczema Area and Severity Index (EASI) ≧12 and ≦48 (0-72 scale). In addition, subjective patient reported outcome instruments include: Ziarco Itch Diary (Electronic) Pruritus; 5D Pruritus Scale; Dermatology Life Quality Index (DLQI); and Patient Global Impression of Change (PGIG).
Each subject (aged 18-65 years) had one or more screening visits to confirm suitability to enter the study. 98 subjects with moderate to severe atopic dermatitis were randomized 2:1 to receive orally either 30 mg ZPL-389 or placebo once daily for eight weeks (56 days).
Efficacy endpoints for the trial include the following: • change from baseline in NRS for pruritus (worst itch) over 24 hours; • change from baseline in daytime NRS for pruritus (worst itch); • change from baseline in night time NRS for pruritus (worst itch); • change from baseline in NRS for sleep disturbance; • change from baseline in duration of itching; • change from baseline in verbal rating score for pruritus; • change from baseline in EASI score; • change from baseline in SCORAD score; • IGA score; • amount of rescue medication use; and/or • PGIC.

Series [6] is described as follows: Phase 1 trials, single and multiple ascending doses. It is filed as in vivo, human. As for the experimental part:
In phase 1 trials, 62 subjects were treated with ZPL-389.

The mark [7] stands for this setting: 30 mg orally once daily vs placebo.
The mark [8] stands for this setting: 30 mg orally once daily, 8 weeks.

With `O=C(O)C(O)c1ccccc1` (racemic) [DL-Mandelic acid], the “XRPD 2” value in series [1] (1-Butanol) and in series [1] (Dichloromethane) was “Amorphous” throughout.

As for `CC(=O)Nc1ccc(C(=O)O)cc1` [4-acetamido-Benzoic acid], the “XRPD 2” value in series [1] (1-Butanol) and in series [1] (Dichloromethane) was “ABen1 + ABen0” each time.

Turning to `O=C(O)[C@H](O)[C@@H](O)C(=O)O` [(+)-L-Tartaric acid], the “XRPD 2” value in series [1] (1-Butanol) and in series [1] (Dichloromethane) was “Amorphous” throughout.

Take `CC(=O)O` [Acetic acid]: the “XRPD 2” value in series [1] (1-Butanol) and in series [1] (Dichloromethane) was “Amorphous” in each case.

Consider `O=S(=O)(O)c1ccccc1` [Benzenesulfonic acid], for which the “XRPD 2” value in series [1] (1-Butanol) and in series [1] (Dichloromethane) was “Amorphous” throughout.

For the molecule `O=C(O)c1ccccc1` [Benzoic acid], the “XRPD 2” value in series [1] (1-Butanol) and in series [1] (Dichloromethane) was “Ben1 + Ben2 plus” in each case.

For the molecule `O=C(O)CC(O)(CC(=O)O)C(=O)O` [Citric acid], the “XRPD 2” value in series [1] (1-Butanol) and in series [1] (Dichloromethane) was “Amorphous” each time.

Take `O=C[C@H](O)[C@@H](O)[C@H](O)[C@H](O)C(=O)O` [D-Glucuronic acid]: the “XRPD 2” value in series [1] (1-Butanol) and in series [1] (Dichloromethane) was “Amorphous” throughout.

Take `O=S(=O)(O)CCS(=O)(=O)O` [Ethane-1,2-disulfonic acid]: the “XRPD 2” value is “Eds1 + Eds2” in series [1] (1-Butanol) and “Eds1” in series [1] (Dichloromethane).

`CCS(=O)(=O)O` [Ethanesulfonic acid]: the “XRPD 2” value in series [1] (1-Butanol) and in series [1] (Dichloromethane) was “Amorphous” each time.

`CN[C@@H]1CCN(c2cc(NCC3CC3)nc(N)n2)C1.O.O.O=C(O)C(O)C(O)C(=O)O` [Example 4, N^4-(cyclopropylmethyl)-6-[(3R)-3-(methylamino)pyrrolidin-1-yl]pyrimidine-2,4-diamine tartrate dihydrate]: the “RH at which the dehydration step occurs during desorption” value in series [2] (DVS desorption) is “below 10 % RH”. Moreover, in series [2] (DVS sorption), the “Water uptake (mass uptake) between 0-20% RH” value is 1.9% and the “total mass uptake at 20-30% RH” value stood at 6.9%. In addition, in series [2] (DVS), the “weight between 30-90% RH” value is given as “remains stable”.

As to `CN[C@@H]1CCN(c2cc(NCC3CC3)nc(N)n2)C1.Cl.Cl.O` [Example 8, N^4-(cyclopropylmethyl)-6-[(3R)-3-(methylamino)pyrrolidin-1-yl]pyrimidine-2,4-diamine di-hydrochloride hydrate], in series [3], the “stability of two to one stoichiometric salt” value is “stable”.

For `O=C(O)/C=C/C(=O)O` [Fumaric acid], the “XRPD 2” value is recorded as “Amorphous” in series [1] (1-Butanol) and “Fum0 + Fum3” in series [1] (Dichloromethane).

Turning to `O=C(O)c1cc(O)ccc1O` [Gentisic acid], the “XRPD 2” value in series [1] (1-Butanol) and in series [1] (Dichloromethane) was “Gen2” in each case.

As for `O=C(O)[C@H](O)[C@@H](O)[C@H](O)[C@H](O)CO` [Gluconic acid], the “XRPD 2” value in series [1] (1-Butanol) and in series [1] (Dichloromethane) was “Amorphous” throughout.

For the molecule `N[C@@H](CCC(=O)O)C(=O)O` [Glutamic acid], the “XRPD 2” value in series [1] (1-Butanol) was “Gltm0”; in series [1] (Dichloromethane) it was “Amorphous”.

Consider `O=C(O)CCCC(=O)O` [Glutaric acid], for which the “XRPD 2” value in series [1] (1-Butanol) and in series [1] (Dichloromethane) was “Glut1” in each case.

`O=C(O)CNC(=O)c1ccccc1` [Hippuric acid]: the “XRPD 2” value in series [1] (1-Butanol) and in series [1] (Dichloromethane) was “Amorphous” in each case.

`Br` [Hydrobromic acid]: the “XRPD 2” value in series [1] (1-Butanol) and in series [1] (Dichloromethane) was “Amorphous” throughout.

Turning to `Cl` [Hydrochloric acid], the “XRPD 2” value in series [1] (1-Butanol) and in series [1] (Dichloromethane) was “Amorphous” in each case.

On to `O=C1O[C@H]([C@@H](O)CO)C(O)=C1O` [L-Ascorbic acid], for which the “XRPD 2” value in series [1] (1-Butanol) and in series [1] (Dichloromethane) was “Amorphous” throughout.

On to `N[C@@H](CC(=O)O)C(=O)O` [L-Aspartic acid], for which the “XRPD 2” value in series [1] (1-Butanol) was “Asp0”; in series [1] (Dichloromethane) it was “Amorphous”.

For the molecule `CC(O)C(=O)O` (stereo not drawn) [Lactic acid], the “XRPD 2” value in series [1] (1-Butanol) and in series [1] (Dichloromethane) was “Amorphous” throughout.

Turning to `O=C(O)/C=C\C(=O)O` [Maleic acid], the “XRPD 2” value in series [1] (1-Butanol) and in series [1] (Dichloromethane) was “Amorphous” throughout.

On to `CS(=O)(=O)O` [Methanesulfonic acid], for which the “XRPD 2” value in series [1] (1-Butanol) and in series [1] (Dichloromethane) was “Amorphous” in each case.

In the case of `O=S(=O)(O)c1ccc2ccccc2c1` [Naphtalene-2-sulfonic acid], the “XRPD 2” value in series [1] (1-Butanol) is given as “Nap1 + Nap0”; in series [1] (Dichloromethane), “Amorphous”.

Take `O=C(O)C(=O)O` [Oxalic acid]: the “XRPD 2” value in series [1] (1-Butanol) and in series [1] (Dichloromethane) was “Oxa3” in each case.

As for `O=P(O)(O)O` [Phosphoric acid], the “XRPD 2” value is listed as “Pho2 plus” in series [1] (1-Butanol) and “Pho3” in series [1] (Dichloromethane).

With `O=C(O)c1ccccc1O` [Salicylic acid], the “XRPD 2” value is on record as “Sal1 plus” in series [1] (1-Butanol) and “Amorphous” in series [1] (Dichloromethane).

`CCCCCCCCCCCCCCCCCC(=O)O` [Stearic acid]: the “XRPD 2” value in series [1] (1-Butanol) and in series [1] (Dichloromethane) was “Ste0 + Ste1” throughout.

On to `O=S(=O)(O)O` [Sulfuric acid], for which the “XRPD 2” value in series [1] (1-Butanol) and in series [1] (Dichloromethane) was “Amorphous” in each case.

Turning to `CN[C@@H]1CCN(c2cc(NCC3CC3)nc(N)n2)C1` [ZPL-389, N^4-(cyclopropylmethyl)-6-[(3R)-3-(methylamino)pyrrolidin-1-yl]pyrimidine-2,4-diamine], the “efficacy in mild asthma” value in series [4] is “no efficacy was observed”. Further, in series [5] (setting [7]), the “IGA remission odds ratio” value was 2.71 and the “IGA response odds ratio” value is listed as 2.51. Besides, in series [5] (setting [8]), the “Treatment Emergent Adverse Events (TEAE) between ZPL-389 and placebo” value is “no differences”; the “inflammation compared to placebo (EASI, SCORAD, BSA)” value is “clinically and statistically significant decrease”; the “subjects with clear or almost clear skin” value turned out to be 19%. The “tolerability / safety profile” value in series [5] (30 mg orally once daily, 8 weeks, comparable to placebo) was “well tolerated”. In series [5] (30 mg orally once daily, 8 weeks, vs placebo), the rescue medication use result is on record as “lower”. In series [5] (30 mg orally once daily, week 8, placebo 25%), the “IGA reduced by” value amounted to 36%. Also, the “SCORAD reduced by” value in series [5] (30 mg orally once daily, week 8, placebo 26%, p=0.004) turned out to be 41%. The “EASI reduced by” value in series [5] (30 mg orally once daily, week 8, placebo 27%, p=0.01) turned out to be 50%. In addition, the “BSA (Body Surface Area) affected by inflammation change from baseline” value in series [5] (30 mg orally once daily, week 8, placebo −12%, p=0.044) was −18%. In addition, the pruritus result in series [5] (30 mg orally once daily, statistically significant compared to baseline) is “markedly reduced”. Further, in series [6] (phase 1 trials), the absorption entry is listed as “rapidly absorbed” and the “pharmacokinetics (dose proportionality)” value is reported as “dose-proportional”. The “majority of observed adverse events” value in series [6] (single ascending doses 0.01-48 mg, multiple ascending doses 5, 15, 50 mg once daily for 14 days) is “mild, transient, and non-dose related”. In series [6] (single ascending doses 0.01-48 mg, multiple ascending doses 5, 15, 50 mg once daily for 14 days, 62 subjects), the tolerability result was “safely tolerated”.

On to `Cc1ccc(S(=O)(=O)O)cc1` [p-Toluenesulfonic acid], for which the “XRPD 2” value in series [1] (1-Butanol) and in series [1] (Dichloromethane) was “Amorphous” throughout.

In the case of (−)-L-Malic acid, the “XRPD 2” value in series [1] (1-Butanol) and in series [1] (Dichloromethane) was “Amorphous” throughout.
